Source: patent US10287255B2, “Compounds as histone deacetylase 6 inhibitors and pharmaceutical compositions comprising the same” (CHONG KUN DANG PHARMACEUTICAL CORP., priority 2014, dated 2019)

Tests used:
[1] = molecular target: T1, human recombinant HDAC1 (Homo sapiens, UniProt Q13547); test: HDAC1 enzyme activity inhibition assay (in vitro, fluorimetric); format: biochemical; conditions: human recombinant HDAC1, fluorimetric kit, 30° C. 60 minutes
T1 construct: purchased Enzo Life Science BML-SE456
How it was run: (§1)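 Human recombinant enzyme (0.3 μg for HDAC1) reacted with 10 μM Fluor de Lys-SIRT1 substrate and 5-fold compound dilutions at 30 °C for 60 min, then developer for 30 min. Fluorescence read at Ex 360/Em 460; IC50 calculated. HDAC6 run by the same protocol.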

[2] = molecular target: T2, human recombinant HDAC6 (Homo sapiens, UniProt Q9UBN7); test: HDAC6 enzyme activity inhibition assay (in vitro, fluorimetric); format: biochemical; conditions: for HDAC6 selectivity (fold): HDAC6 selectivity over HDAC1; for IC50: human recombinant HDAC6, fluorimetric kit, same protocol as HDAC1
T2 construct: purchased Calbiochem 382180
T2 sequence (Q9UBN7 1-1215): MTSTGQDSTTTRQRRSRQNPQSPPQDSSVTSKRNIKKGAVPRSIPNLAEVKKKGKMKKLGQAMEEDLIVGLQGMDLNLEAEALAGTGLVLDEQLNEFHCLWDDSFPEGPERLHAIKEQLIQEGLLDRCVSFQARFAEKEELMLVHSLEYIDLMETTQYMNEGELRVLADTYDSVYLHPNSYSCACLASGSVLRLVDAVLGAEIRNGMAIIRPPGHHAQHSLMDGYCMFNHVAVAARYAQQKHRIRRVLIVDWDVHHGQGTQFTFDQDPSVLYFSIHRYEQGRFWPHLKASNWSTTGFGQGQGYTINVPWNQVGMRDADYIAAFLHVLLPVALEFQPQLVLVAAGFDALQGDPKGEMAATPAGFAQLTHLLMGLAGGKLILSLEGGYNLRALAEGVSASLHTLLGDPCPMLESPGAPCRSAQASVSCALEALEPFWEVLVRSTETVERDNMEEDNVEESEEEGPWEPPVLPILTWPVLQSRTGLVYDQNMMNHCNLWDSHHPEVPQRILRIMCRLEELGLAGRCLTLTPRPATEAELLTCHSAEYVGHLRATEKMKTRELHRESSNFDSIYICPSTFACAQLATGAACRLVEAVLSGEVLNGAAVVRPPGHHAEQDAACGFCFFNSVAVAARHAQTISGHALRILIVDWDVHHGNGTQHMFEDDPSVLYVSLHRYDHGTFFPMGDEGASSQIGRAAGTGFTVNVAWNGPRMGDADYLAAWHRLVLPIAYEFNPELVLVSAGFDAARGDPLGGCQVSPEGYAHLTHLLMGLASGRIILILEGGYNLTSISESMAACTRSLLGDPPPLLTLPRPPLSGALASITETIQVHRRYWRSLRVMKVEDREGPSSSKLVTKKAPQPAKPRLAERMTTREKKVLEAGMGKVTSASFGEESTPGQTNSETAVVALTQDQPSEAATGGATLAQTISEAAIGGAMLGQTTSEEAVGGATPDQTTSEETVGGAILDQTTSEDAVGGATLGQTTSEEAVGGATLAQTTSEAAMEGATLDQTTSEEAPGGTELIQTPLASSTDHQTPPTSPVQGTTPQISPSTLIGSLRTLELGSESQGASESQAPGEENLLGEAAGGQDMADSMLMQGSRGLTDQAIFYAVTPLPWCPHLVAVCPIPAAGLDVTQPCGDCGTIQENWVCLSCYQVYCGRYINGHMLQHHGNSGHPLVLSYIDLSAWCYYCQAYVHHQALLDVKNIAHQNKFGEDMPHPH
How it was run: as §1

T1 sequence (Q13547 whole entry): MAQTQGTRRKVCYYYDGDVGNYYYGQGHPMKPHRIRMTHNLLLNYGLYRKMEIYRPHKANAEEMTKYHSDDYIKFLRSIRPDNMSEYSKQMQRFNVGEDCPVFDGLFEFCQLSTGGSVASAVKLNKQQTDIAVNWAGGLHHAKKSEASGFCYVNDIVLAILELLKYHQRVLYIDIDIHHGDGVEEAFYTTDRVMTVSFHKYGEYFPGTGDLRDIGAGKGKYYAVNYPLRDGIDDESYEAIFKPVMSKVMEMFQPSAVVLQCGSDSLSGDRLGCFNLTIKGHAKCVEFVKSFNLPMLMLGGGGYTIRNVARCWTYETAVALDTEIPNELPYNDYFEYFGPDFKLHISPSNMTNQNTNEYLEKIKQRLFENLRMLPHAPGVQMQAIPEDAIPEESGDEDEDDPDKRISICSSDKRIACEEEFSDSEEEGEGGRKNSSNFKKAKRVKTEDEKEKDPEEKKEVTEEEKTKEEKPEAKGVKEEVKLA

C[C@@H]1CN(Cc2ccc(C(=O)NO)cc2)C[C@H](C)N1C(=O)CCc1ccccc1 [Compound 188, 4-(((3R,5S)-3,5-dimethyl-4-(3-phenylpropanoyl)piperazin-1-yl)methyl)-N-hydroxybenzamide]
IC50 [1]: 13600 nM
HDAC6 selectivity (fold) [2]: 71 fold
IC50 [2]: 191 nM

C[C@@H]1CN(Cc2ccc(C(=O)NO)nc2)C[C@H](C)N1Cc1ccccc1 [Compound 812, 5-(((3R,5S)-4-benzyl-3,5-dimethylpiperazin-1-yl)methyl)-N-hydroxypicolinamide]
IC50 [1]: > 10000 nM
HDAC6 selectivity (fold) [2]: >6 fold
IC50 [2]: 1540 nM

C[C@@H]1CN(Cc2ccc(C(=O)NO)cc2)C[C@H](C)N1Cc1cccc(CN2CCN(C)CC2)c1 [Compound 428, 4-(((3R,5S)-3,5-dimethyl-4-(3-((4-methylpiperazin-1-yl)methyl)benzyl)piperazin-1-yl)methyl)-N-hydroxybenzamide]
IC50 [1]: 4700 nM
HDAC6 selectivity (fold) [2]: 41 fold
IC50 [2]: 117 nM

C[C@@H]1CN(Cc2ccc(C(=O)NO)cc2)C[C@H](C)N1C(=O)c1ccccc1-c1ccco1 [Compound 283, 4-(((3R,5S)-4-(2-(furan-2-yl)benzoyl)-3,5-dimethylpiperazin-1-yl)methyl)-N-hydroxybenzamide]
IC50 [1]: 3500 nM
HDAC6 selectivity (fold) [2]: 154 fold
IC50 [2]: 23 nM

CCN1CCN(Cc2cccc(C(=O)N3[C@H](C)CN(Cc4ccc(C(=O)NO)cc4)C[C@@H]3C)c2)CC1 [Compound 433, 4-(((3R,5S)-4-(3-((4-ethylpiperazin-1-yl)methyl)benzoyl)-3,5-dimethylpiperazin-1-yl)methyl)-N-hydroxybenzamide]
IC50 [1]: 3500 nM
HDAC6 selectivity (fold) [2]: 71 fold
IC50 [2]: 49 nM

C[C@@H]1CN(C(=O)c2cccc(-c3ccco3)c2)C[C@H](C)N1Cc1ccc(C(=O)NO)cc1 [Compound 257, 4-(((2S,6R)-4-(3-(furan-2-yl)benzoyl)-2,6-dimethylpiperazin-1-yl)methyl)-N-hydroxybenzamide]
IC50 [1]: 1600 nM
HDAC6 selectivity (fold) [2]: 6 fold
IC50 [2]: 255 nM

C[C@@H]1CN(Cc2ccc(C(=O)NO)cc2)C[C@H](C)N1C(=O)c1cccc(CN2CCN(CC(F)(F)F)CC2)c1 [Compound 443, 4-(((3R,5S)-3,5-dimethyl-4-(3-((4-(2,2,2-trifluoroethyl)piperazin-1-yl)methyl)benzoyl)piperazin-1-yl)methyl)-N-hydroxybenzamide]
IC50 [1]: 9600 nM
HDAC6 selectivity (fold) [2]: 68 fold
IC50 [2]: 141 nM

C[C@@H]1CN(Cc2ccc(C(=O)NO)cc2)C[C@H](C)N1C(=O)c1ccco1 [Compound 125, 4-(((3R,5S)-4-(furan-2-carbonyl)-3,5-dimethylpiperazin-1-yl)methyl)-N-hydroxybenzamide]
IC50 [1]: > 10000 nM
HDAC6 selectivity (fold) [2]: >3333 fold
IC50 [2]: 3 nM

Cc1ccccc1NC(=O)N1[C@H](C)CN(Cc2ccc(C(=O)NO)cc2)C[C@@H]1C [Compound 160, (2S,6R)-4-(4-(hydroxycarbamoyl)benzyl)-2,6-dimethyl-N-o-tolylpiperazine-1-carboxamide]
IC50 [1]: 8800 nM
HDAC6 selectivity (fold) [2]: 177 fold
IC50 [2]: 50 nM

C[C@@H]1CN(Cc2ccc(C(=O)NO)cc2)C[C@H](C)N1C(=O)c1cccc(-c2ccoc2)c1 [Compound 243, 4-(((3R,5S)-4-(3-(furan-3-yl)benzoyl)-3,5-dimethylpiperazin-1-yl)methyl)-N-hydroxybenzamide]
IC50 [1]: 3000 nM
HDAC6 selectivity (fold) [2]: 40 fold
IC50 [2]: 74 nM

CC(C)N1CCN(Cc2cccc(C(=O)N3[C@H](C)CN(Cc4ccc(C(=O)NO)cc4)C[C@@H]3C)c2)CC1 [Compound 434, N-hydroxy-4-(((3R,5S)-4-(3-((4-isopropylpiperazin-1-yl)methyl)benzoyl)-3,5-dimethylpiperazin-1-yl)methyl)benzamide]
IC50 [1]: 3700 nM
HDAC6 selectivity (fold) [2]: 61 fold
IC50 [2]: 60 nM

CCN(CC)Cc1cccc(C(=O)N2[C@H](C)CN(Cc3ccc(C(=O)NO)cc3)C[C@@H]2C)c1 [Compound 425, 4-(((3R,5S)-4-(3-((diethylamino)methyl)benzoyl)-3,5-dimethylpiperazin-1-yl)methyl)-N-hydroxybenzamide]
IC50 [1]: 1500 nM
HDAC6 selectivity (fold) [2]: 17 fold
IC50 [2]: 86 nM

C[C@@H]1CN(c2ccc(F)cc2)C[C@H](C)N1Cc1ccc(C(=O)NO)cc1 [Compound 119, 4-(((2S,6R)-4-(4-fluorophenyl)-2,6-dimethylpiperazin-1-yl)methyl)-N-hydroxybenzamide]
IC50 [1]: 8200 nM
HDAC6 selectivity (fold) [2]: 26 fold
IC50 [2]: 309 nM

C[C@@H]1CN(C(=O)c2cccc(-c3ccoc3)c2)C[C@H](C)N1Cc1ccc(C(=O)NO)cc1 [Compound 258, 4-(((2S,6R)-4-(3-(furan-3-yl)benzoyl)-2,6-dimethylpiperazin-1-yl)methyl)-N-hydroxybenzamide]
IC50 [1]: 1700 nM
HDAC6 selectivity (fold) [2]: 7 fold
IC50 [2]: 258 nM

C[C@@H]1CN(Cc2ccc(CC(=O)NO)cc2)C[C@H](C)N1Cc1ccccc1 [Compound 173, 2-(4-(((3R,5S)-4-benzyl-3,5-dimethylpiperazin-1-yl)methyl)phenyl)-N-hydroxyacetamide]
IC50 [1]: 7200 nM
HDAC6 selectivity (fold) [2]: 85 fold
IC50 [2]: 85 nM

C[C@@H]1CN(Cc2cccc(C(F)(F)F)c2)C[C@H](C)N1Cc1ccc(C(=O)NO)cc1 [Compound 298, 4-(((2S,6R)-2,6-dimethyl-4-(3-(trifluoromethyl)benzyl)piperazin-1-yl)methyl)-N-hydroxybenzamide]
IC50 [1]: 5500 nM
HDAC6 selectivity (fold) [2]: 15 fold
IC50 [2]: 369 nM

C[C@@H]1CN(Cc2ccc(C(=O)NO)cc2)C[C@H](C)N1Cc1ccc(CN2CC(F)(F)C2)cc1 [Compound 412, 4-(((3R,5S)-4-(4-((3,3-difluoroazetidin-1-yl)methyl)benzyl)-3,5-dimethylpiperazin-1-yl)methyl)-N-hydroxybenzamide]
IC50 [1]: 1100 nM
HDAC6 selectivity (fold) [2]: 36 fold
IC50 [2]: 32 nM

C[C@@H]1CN(Cc2cccc(CN3CCCC3)c2)C[C@H](C)N1Cc1ccc(C(=O)NO)cc1 [Compound 479, 4-(((2S,6R)-2,6-dimethyl-4-(3-(pyrrolidin-1-ylmethyl)benzyl)piperazin-1-yl)methyl)-N-hydroxybenzamide]
IC50 [1]: 5300 nM
HDAC6 selectivity (fold) [2]: 12 fold
IC50 [2]: 433 nM

C[C@@H]1CN(Cc2ccccc2-c2cccnc2)C[C@H](C)N1Cc1ccc(C(=O)NO)cc1 [Compound 349, 4-(((2S,6R)-2,6-dimethyl-4-(2-(pyridin-3-yl)benzyl)piperazin-1-yl)methyl)-N-hydroxybenzamide]
IC50 [1]: 5000 nM
HDAC6 selectivity (fold) [2]: 1000 fold
IC50 [2]: 5 nM

Cc1ccc(C(=O)N2[C@H](C)CN(Cc3ccc(C(=O)NO)cc3)C[C@@H]2C)cc1 [Compound 290, 4-(((3R,5S)-3,5-dimethyl-4-(4-methylbenzoyl)piperazin-1-yl)methyl)-N-hydroxybenzamide]
IC50 [1]: 3800 nM
HDAC6 selectivity (fold) [2]: 48 fold
IC50 [2]: 79 nM

C[C@@H]1CN(Cc2ccc(C(=O)NO)c(O)c2)C[C@H](C)N1Cc1cccc(CN2CCOCC2)c1 [Compound 653, 4-(((3R,5S)-3,5-dimethyl-4-(3-(morpholinomethyl)benzyl)piperazin-1-yl)methyl)-N,2-dihydroxybenzamide]
IC50 [1]: > 10000 nM
HDAC6 selectivity (fold) [2]: >23 fold
IC50 [2]: 420 nM

CC(=O)N1CCN(Cc2cccc(CN3[C@H](C)CN(Cc4ccc(C(=O)NO)cc4)C[C@@H]3C)c2)CC1 [Compound 431, 4-(((3R,5S)-4-(3-((4-acetylpiperazin-1-yl)methyl)benzyl)-3,5-dimethylpiperazin-1-yl)methyl)-N-hydroxybenzamide]
IC50 [1]: 13400 nM
HDAC6 selectivity (fold) [2]: 611 fold
IC50 [2]: 22 nM
